From PMC3187794, “Insights into the Complex Formed by Matrix Metalloproteinase-2 and Alloxan Inhibitors: Molecular Dynamics Simulations and Free Energy Calculations” (PLoS ONE, 2011)

Key:
Assay type in all cases: biochemical
MMP-2 = target: T1, MMP-2 (Homo sapiens, UniProt P08253); assay: MMP inhibition fluorimetric assay (pro-fluorescing peptide substrate), MMP-2
T1 sequence (P08253 110-660): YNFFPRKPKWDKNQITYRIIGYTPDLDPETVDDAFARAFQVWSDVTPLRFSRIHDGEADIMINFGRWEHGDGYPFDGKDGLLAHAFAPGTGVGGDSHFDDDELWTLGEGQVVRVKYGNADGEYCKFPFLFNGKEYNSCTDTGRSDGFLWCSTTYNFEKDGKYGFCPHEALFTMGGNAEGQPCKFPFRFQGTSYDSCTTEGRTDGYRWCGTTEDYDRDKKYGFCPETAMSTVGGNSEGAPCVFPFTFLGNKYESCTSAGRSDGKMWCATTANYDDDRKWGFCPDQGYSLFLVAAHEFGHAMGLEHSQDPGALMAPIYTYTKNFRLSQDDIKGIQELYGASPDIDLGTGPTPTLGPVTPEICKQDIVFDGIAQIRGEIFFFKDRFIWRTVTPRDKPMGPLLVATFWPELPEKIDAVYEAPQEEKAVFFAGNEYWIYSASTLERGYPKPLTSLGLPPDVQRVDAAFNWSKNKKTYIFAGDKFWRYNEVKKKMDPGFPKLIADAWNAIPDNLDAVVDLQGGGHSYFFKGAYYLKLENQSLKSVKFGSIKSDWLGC
Description: (§1) Inhibitory activities were determined by a fluorimetric assay, where a pro-fluorescing peptide was used as substrate of MMP, and the fluorogenic activity of its cleavage product was measured after co-incubation with test compounds.

MMP-8 = MMP-8 (Homo sapiens, UniProt P22894); assay: MMP inhibition fluorimetric assay (pro-fluorescing peptide substrate), MMP-8
Description: as §1

MMP-9 = MMP-9 (Homo sapiens, UniProt P14780); assay: MMP inhibition fluorimetric assay (pro-fluorescing peptide substrate), MMP-9
Description: as §1

Sequence of MMP-9 (P14780 94-707, species assumed): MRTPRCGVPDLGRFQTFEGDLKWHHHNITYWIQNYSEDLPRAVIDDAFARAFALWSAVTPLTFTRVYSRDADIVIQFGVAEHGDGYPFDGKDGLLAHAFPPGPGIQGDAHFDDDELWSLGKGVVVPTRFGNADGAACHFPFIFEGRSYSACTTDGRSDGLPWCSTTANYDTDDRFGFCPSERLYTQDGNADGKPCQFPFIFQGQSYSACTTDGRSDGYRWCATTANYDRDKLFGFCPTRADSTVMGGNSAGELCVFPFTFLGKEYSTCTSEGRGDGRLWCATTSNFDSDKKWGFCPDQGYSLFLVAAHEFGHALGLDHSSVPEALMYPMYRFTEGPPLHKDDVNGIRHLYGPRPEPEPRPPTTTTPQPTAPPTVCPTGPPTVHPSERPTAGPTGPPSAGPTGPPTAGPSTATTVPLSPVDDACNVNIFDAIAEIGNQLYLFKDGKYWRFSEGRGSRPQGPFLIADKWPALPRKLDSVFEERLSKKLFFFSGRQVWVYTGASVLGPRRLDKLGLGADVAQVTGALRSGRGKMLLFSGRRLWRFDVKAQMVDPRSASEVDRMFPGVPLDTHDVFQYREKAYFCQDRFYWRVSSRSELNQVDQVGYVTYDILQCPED
Sequence of MMP-8 (P22894 101-467, species assumed): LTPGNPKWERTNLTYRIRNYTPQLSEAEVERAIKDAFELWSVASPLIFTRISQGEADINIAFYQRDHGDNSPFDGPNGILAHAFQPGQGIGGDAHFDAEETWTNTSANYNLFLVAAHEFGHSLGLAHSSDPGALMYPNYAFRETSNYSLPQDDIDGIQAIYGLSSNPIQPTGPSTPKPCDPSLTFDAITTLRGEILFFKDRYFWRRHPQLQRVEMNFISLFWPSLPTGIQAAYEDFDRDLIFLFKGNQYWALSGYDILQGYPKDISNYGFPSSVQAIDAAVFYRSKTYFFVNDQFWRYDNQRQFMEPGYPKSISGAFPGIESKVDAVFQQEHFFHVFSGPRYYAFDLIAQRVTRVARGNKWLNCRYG

| SMILES | IC50 (MMP-2) | IC50 (MMP-8) | IC50 (MMP-9) | inhibition at 100 µM (MMP-2) | inhibition at 100 µM (MMP-8) | inhibition at 100 µM (MMP-9) | selectivity towards MMP-2, as compared to MMP-9 (MMP-2; MMP-2 vs MMP-9) |
| --- | --- | --- | --- | --- | --- | --- | --- |
| O=C1NC(=O)C(O)(CC(=O)c2ccc(-c3cccc(Cl)c3)cc2)C(=O)N1 [BCL] | 60.3 µM | 4.47 µM | 20 µM |  |  |  |  |
| O=C1NC(=O)C(O)(CC(=O)c2ccccc2)C(=O)N1 [compound 3] |  | 42.7 µM | 44.7 µM | 0% |  |  |  |
| O=c1[nH]c(=O)c2cc(-c3ccc(C(F)(F)F)cc3)nnc2[nH]1 [compound 2] |  |  |  | 12% | 14% | 27% |  |
| O=C1NC(=O)C(O)(CC(=O)c2ccc([N+](=O)[O-])cc2)C(=O)N1 [compound 6] |  | 631 µM |  | 0% |  | 8% |  |
| COc1ccc(C(=O)CC2(O)C(=O)NC(=O)NC2=O)cc1 [compound 5] | 21.4 µM | 6.76 µM | 12.9 µM |  |  |  |  |
| O=c1[nH]c(=O)c2cc(-c3ccccc3)nnc2[nH]1 [compound 1] |  |  |  | 0% | 0% | 5% |  |
| O=C1NC(=O)C(O)(CC(=O)c2ccc(C(F)(F)F)cc2)C(=O)N1 [compound 4] | 38.9 µM | 8.13 µM |  |  |  | 51% |  |
| NC(=O)c1ccc(-c2ccc(C(=O)CC3(O)C(=O)NC(=O)NC3=O)cc2)cc1 [BAM] | 0.0871 µM | 0.589 µM | 1.82 µM |  |  |  | > 20 |
| O=C1NC(=O)C(O)(CC(=O)c2ccc(-c3ccccc3)cc2)C(=O)N1 [BAR] | 0.182 µM | 0.263 µM | 0.513 µM |  |  |  |  |
